What was measured:
A-549 = assay: cells; settings: Homo sapiens, A549, 48 h; for GI50: read-out: GI50 A549; for CC50: read-out: LC50 A549; for IC (TGI): read-out: TGI A549
How it was run: (§1)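 Colorimetric SRB read (490 nm) on triplicate wells after 48 h at 37 °C, 5% CO2. Dose range 10 to 10^−8 μg/ml; 5×10^3 cells/well pre-attached 18 h.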

HT-29 = assay: cells; settings: Homo sapiens, HT-29, 48 h; for GI50: read-out: GI50 HT29; for CC50: read-out: LC50 HT29; for IC (TGI): read-out: TGI HT29
How it was run: as §1

LoVo = assay: cells; settings: Homo sapiens, LoVo, 48 h; for GI50: read-out: GI50 LOVO; for CC50: read-out: LC50 LOVO; for IC (TGI): read-out: TGI LOVO
How it was run: as §1

LNCaP = assay: Inhibition of cells growth by colorimetric assay (SRB); settings: Homo sapiens, LNCaP, 48 h; for GI50: read-out: GI50 LNCAP; for CC50: read-out: LC50 LNCAP; for IC (TGI): read-out: TGI LNCAP
How it was run: as §1

HeLa = assay: as above; settings: Homo sapiens, HeLa, 48 h; for GI50: read-out: GI50 HELA; for CC50: read-out: LC50 HELA; for IC (TGI): read-out: TGI HELA
How it was run: as §1

HeLa-APL = assay: as above; settings: Homo sapiens, 48 h; for GI50: read-out: GI50 HELA-APL; for CC50: read-out: LC50 HELA-APL; for IC (TGI): read-out: TGI HELA-APL
How it was run: as §1

K-562 = assay: as above; settings: Homo sapiens, K562, 48 h; for GI50: read-out: GI50 K562; for CC50: read-out: LC50 K562; for IC (TGI): read-out: TGI K562
How it was run: as §1

IGROV-1 = assay: as above; settings: Homo sapiens, IGROV-1, 48 h; for GI50: read-out: GI50 IGROV; for CC50: read-out: LC50 IGROV; for IC (TGI): read-out: TGI IGROV
How it was run: as §1

IGROV-ET = assay: as above; settings: Homo sapiens, 48 h; for GI50: read-out: GI50 IGROV-ET; for CC50: read-out: LC50 IGROV-ET; for IC (TGI): read-out: TGI IGROV-ET
How it was run: as §1

DU-145 = assay: as above; settings: Homo sapiens, DU-145, 48 h; for GI50: read-out: GI50 DU145; for CC50: read-out: LC50 DU145; for IC (TGI): read-out: TGI DU145
How it was run: as §1

SK-BR-3 = assay: as above; settings: Homo sapiens, SK-BR-3, 48 h; for GI50: read-out: GI50 SK-BR3; for CC50: read-out: LC50 SK-BR3; for IC (TGI): read-out: TGI SK-BR3
How it was run: as §1

LoVo-Dox = assay: as above; settings: Homo sapiens, 48 h; for GI50: read-out: GI50 LOVO-DOX; for CC50: read-out: LC50 LOVO-DOX; for IC (TGI): read-out: TGI LOVO-DOX
How it was run: as §1

PANC-1 = assay: as above; settings: Homo sapiens, PANC-1, 48 h; for GI50: read-out: GI50 PANC-1; for CC50: read-out: LC50 PANC-1; for IC (TGI): read-out: TGI PANC-1
How it was run: as §1

SK-MEL-28 = assay: as above; settings: Homo sapiens, SK-MEL-28, 48 h; for GI50: read-out: GI50 MEL-28; for CC50: read-out: LC50 MEL-28; for IC (TGI): read-out: TGI MEL-28
How it was run: as §1

Compound: C=CCOc1c(C)c2c(c3c1CC1[C@H]4c5c(cc(C)c(OC)c5O)C[C@@H]([C@H](C#N)N1[C@H]3CO)N4C)OCO2 (stereo partly drawn) [compound 2]
- GI50 (A-549): 0.633 µM
- CC50 (A-549): 9.11 µM
- IC (TGI) (A-549): 1.39 µM
- GI50 (HT-29): 1.06 µM
- CC50 (HT-29): 19.2 µM
- IC (TGI) (HT-29): 14.2 µM
- GI50 (LoVo): 0.533 µM
- CC50 (LoVo): 1.92 µM
- IC (TGI) (LoVo): 1.07 µM
- GI50 (LNCaP): 0.592 µM
- CC50 (LNCaP): 2.76 µM
- IC (TGI) (LNCaP): 1.11 µM
- GI50 (HeLa): 0.763 µM
- CC50 (HeLa): 9.8 µM
- IC (TGI) (HeLa): 1.45 µM
- GI50 (HeLa-APL): 0.479 µM
- CC50 (HeLa-APL): 1.49 µM
- IC (TGI) (HeLa-APL): 0.844 µM
- GI50 (K-562): 0.516 µM
- CC50 (K-562): 4.79 µM
- IC (TGI) (K-562): 1.22 µM
- GI50 (IGROV-1): 0.926 µM
- CC50 (IGROV-1): 18.2 µM
- IC (TGI) (IGROV-1): 2.26 µM
- GI50 (IGROV-ET): 1.06 µM
- CC50 (IGROV-ET): 19.2 µM
- IC (TGI) (IGROV-ET): 19.2 µM
- GI50 (DU-145): 0.897 µM
- CC50 (DU-145): 19.2 µM
- IC (TGI) (DU-145): 3.13 µM
- GI50 (SK-BR-3): 0.778 µM
- CC50 (SK-BR-3): 19.2 µM
- IC (TGI) (SK-BR-3): 1.75 µM
- GI50 (LoVo-Dox): 0.924 µM
- CC50 (LoVo-Dox): 19.2 µM
- IC (TGI) (LoVo-Dox): 19.2 µM
- GI50 (PANC-1): 0.89 µM
- CC50 (PANC-1): 19.2 µM
- IC (TGI) (PANC-1): 3.26 µM
- GI50 (SK-MEL-28): 0.598 µM
- CC50 (SK-MEL-28): 5.31 µM
- IC (TGI) (SK-MEL-28): 1.27 µM

Compound: C=CCN1[C@@H]2c3c(cc(C)c(OC)c3O)C[C@H]1[C@H](C#N)N1C2[C@@H]2SCC(N)C(=O)OC[C@H]1c1c3c(c(C)c(OC(C)=O)c12)OCO3 (stereo partly drawn) [compound 12]
- GI50 (A-549): 0.338 µM
- CC50 (A-549): 1.16 µM
- IC (TGI) (A-549): 0.624 µM
- GI50 (HT-29): 0.503 µM
- CC50 (HT-29): 15.4 µM
- IC (TGI) (HT-29): 1.27 µM
- GI50 (LoVo): 0.399 µM
- CC50 (LoVo): 3.21 µM
- IC (TGI) (LoVo): 0.808 µM
- GI50 (LNCaP): 0.0825 µM
- CC50 (LNCaP): 0.711 µM
- IC (TGI) (LNCaP): 0.251 µM
- GI50 (HeLa): 0.344 µM
- CC50 (HeLa): 1.12 µM
- IC (TGI) (HeLa): 0.621 µM
- GI50 (HeLa-APL): 0.244 µM
- CC50 (HeLa-APL): 0.914 µM
- IC (TGI) (HeLa-APL): 0.472 µM
- GI50 (K-562): 0.11 µM
- CC50 (K-562): 15.4 µM
- IC (TGI) (K-562): 2.51 µM
- GI50 (IGROV-1): 0.225 µM
- CC50 (IGROV-1): 1.05 µM
- IC (TGI) (IGROV-1): 0.486 µM
- GI50 (IGROV-ET): 0.635 µM
- CC50 (IGROV-ET): 3.82 µM
- IC (TGI) (IGROV-ET): 1.07 µM
- GI50 (DU-145): 0.535 µM
- CC50 (DU-145): 4.22 µM
- IC (TGI) (DU-145): 1.02 µM
- GI50 (SK-BR-3): 0.256 µM
- CC50 (SK-BR-3): 0.979 µM
- IC (TGI) (SK-BR-3): 0.501 µM
- GI50 (LoVo-Dox): 0.504 µM
- CC50 (LoVo-Dox): 12.2 µM
- IC (TGI) (LoVo-Dox): 0.971 µM
- GI50 (PANC-1): 0.472 µM
- CC50 (PANC-1): 4.07 µM
- IC (TGI) (PANC-1): 0.953 µM
- GI50 (SK-MEL-28): 0.35 µM
- CC50 (SK-MEL-28): 1.03 µM
- IC (TGI) (SK-MEL-28): 0.603 µM

Compound: COc1c(C)cc2c(c1O)[C@@H]1C3[C@@H]4SC[C@]5(NCCc6c5[nH]c5ccccc65)C(=O)OC[C@@H](c5c6c(c(C)c(OC(C)=O)c54)OCO6)N3[C@@H](C#N)[C@H](C2)N1C (stereo partly drawn) [compound 22]
- GI50 (A-549): 0.0267 µM
- CC50 (A-549): 0.131 µM
- IC (TGI) (A-549): 0.059 µM
- GI50 (HT-29): 0.0297 µM
- CC50 (HT-29): 13.1 µM
- IC (TGI) (HT-29): 0.0825 µM
- GI50 (LoVo): 0.0203 µM
- CC50 (LoVo): 0.0965 µM
- IC (TGI) (LoVo): 0.0411 µM
- GI50 (LNCaP): 0.00615 µM
- CC50 (LNCaP): 0.055 µM
- IC (TGI) (LNCaP): 0.0211 µM
- GI50 (HeLa): 0.0332 µM
- CC50 (HeLa): 0.158 µM
- IC (TGI) (HeLa): 0.0566 µM
- GI50 (HeLa-APL): 0.0211 µM
- CC50 (HeLa-APL): 0.0935 µM
- IC (TGI) (HeLa-APL): 0.0444 µM
- GI50 (K-562): 0.00592 µM
- CC50 (K-562): 0.84 µM
- IC (TGI) (K-562): 0.0424 µM
- GI50 (IGROV-1): 0.0191 µM
- CC50 (IGROV-1): 0.104 µM
- IC (TGI) (IGROV-1): 0.0446 µM
- GI50 (IGROV-ET): 0.0522 µM
- CC50 (IGROV-ET): 0.131 µM
- IC (TGI) (IGROV-ET): 0.104 µM
- GI50 (DU-145): 0.0296 µM
- CC50 (DU-145): 1.31 µM
- IC (TGI) (DU-145): 0.0868 µM
- GI50 (SK-BR-3): 0.00577 µM
- CC50 (SK-BR-3): 0.12 µM
- IC (TGI) (SK-BR-3): 0.0223 µM
- GI50 (LoVo-Dox): 0.0874 µM
- CC50 (LoVo-Dox): 13.1 µM
- IC (TGI) (LoVo-Dox): 0.524 µM
- GI50 (PANC-1): 0.0296 µM
- CC50 (PANC-1): 0.854 µM
- IC (TGI) (PANC-1): 0.0738 µM
- GI50 (SK-MEL-28): 0.0302 µM
- CC50 (SK-MEL-28): 0.102 µM
- IC (TGI) (SK-MEL-28): 0.0555 µM

Compound: COC1=C(C)C(=O)C2=C(C1=O)[C@@H]1C3[C@@H]4SC[C@]5(NCCc6c5[nH]c5ccccc65)C(=O)OC[C@@H](c5c6c(c(C)c(OC(C)=O)c54)OCO6)N3[C@@H](C#N)[C@H](C2)N1C (stereo partly drawn) [compound 23]
- GI50 (A-549): 0.0606 µM
- CC50 (A-549): 0.785 µM
- IC (TGI) (A-549): 0.211 µM
- GI50 (HT-29): 0.0512 µM
- CC50 (HT-29): 12.9 µM
- IC (TGI) (HT-29): 0.215 µM
- GI50 (LoVo): 0.276 µM
- CC50 (LoVo): 0.983 µM
- IC (TGI) (LoVo): 0.522 µM
- GI50 (LNCaP): 0.153 µM
- CC50 (LNCaP): 0.657 µM
- IC (TGI) (LNCaP): 0.318 µM
- GI50 (HeLa): 0.0382 µM
- CC50 (HeLa): 0.114 µM
- IC (TGI) (HeLa): 0.066 µM
- GI50 (HeLa-APL): 0.0356 µM
- CC50 (HeLa-APL): 0.102 µM
- IC (TGI) (HeLa-APL): 0.0603 µM
- GI50 (K-562): 0.0203 µM
- CC50 (K-562): 1.4 µM
- IC (TGI) (K-562): 0.0733 µM
- GI50 (IGROV-1): 0.35 µM
- CC50 (IGROV-1): 1.13 µM
- IC (TGI) (IGROV-1): 0.627 µM
- GI50 (IGROV-ET): 0.456 µM
- CC50 (IGROV-ET): 1.26 µM
- IC (TGI) (IGROV-ET): 0.76 µM
- GI50 (DU-145): 0.0585 µM
- CC50 (DU-145): 4.45 µM
- IC (TGI) (DU-145): 0.143 µM
- GI50 (SK-BR-3): 0.0131 µM
- CC50 (SK-BR-3): 0.645 µM
- IC (TGI) (SK-BR-3): 0.0877 µM
- GI50 (LoVo-Dox): 0.661 µM
- CC50 (LoVo-Dox): 12.9 µM
- IC (TGI) (LoVo-Dox): 7.46 µM
- GI50 (PANC-1): 0.509 µM
- CC50 (PANC-1): 12.9 µM
- IC (TGI) (PANC-1): 1.26 µM
- GI50 (SK-MEL-28): 0.247 µM
- CC50 (SK-MEL-28): 0.857 µM
- IC (TGI) (SK-MEL-28): 0.46 µM

— patent publication US7767659B2, “Synthesis of naturally occurring ecteinascidins and related compounds” (Pharma Mar, S.A., priority 2002, dated 2010)
